Experimental data taken from patent US7230029B2, “Fatty acid analogues for the treatment of proliferative skin disorders” (Thia Medica AS, priority 2000, dated 2007).

Key:
Inv [1] = test: Inv expression by indirect immunofluorescence microscopy; format: cell-based, human
Source text: (§1) In addition, expression of Inv and Tg-1 was examined by indirect immunofluorescence microscopy (FIG. 3).

CD36/FAT = CD36/FAT mRNA expression in NHK treated with PPAR activators and TTA; format: cell-based, human; conditions: NHK treated over a period of three days
Experimental: (§2) Normal adult human epidermal keratinocytes were isolated from human skin obtained after plastic surgery. First passage keratinocytes were grown in serum-free KGM (GIBCO BRL/Life Technologies, Inc.) and replated in 75 cm^2 culture flask or in 96-well microtiterplates preheated at 37° C. at a density of 3500 cells/well. Cells were incubated in a humidified atmosphere of 5% CO2 at 37° C. When cells reached 40% confluence they were treated with growth medium containing selective PPAR ligands (either alone or in combinations as indicated), tetradecylthioacetic acid (TTA) or 1,2 mM Ca^2+. Wy14643 was obtained from Calbiochem, BRL49653 was kindly provided by J. Fleckner, Novo Nordisk), L165041 was kindly provided by D. E. Moller (Merck Research Laboratories, Rahway, N.J.). TTA was manufactured in accordance with example 1. Medium was changed every day. For differentiation, keratinocytes at 40% confluence (day 0) were treated with 1,2 mM CaCl2. Medium was changed every other day. HaCaT cells were obtained from L. Aarenstrup (Danish Cancer Society, Denmark). HaCaT cells were cultured in Dulbecco's modified Eagle's Medium (DMEM) with 10% fetal calf serum (FCS) and antibiotics (100 u/ml penicillin, 1 mg/ml streptomycin sulphate) in a humidified atmosphere of 5% CO2 at 37° C. Medium was changed every other day.
(§3) To evaluate how TTA and the various PPAR activators affected expression of a known PPAR responsive gene and differentiation of keratinocytes, we first measured the mRNA levels of CD36/FAT and the two differentiation markers, Inv and Tg-1 in NHK treated with PPAR selective activators and TTA over a period of three days (FIG. 1a).

Inv [2] = test: Inv protein expression in NHK by Western blotting; format: cell-based, human
Experimental: as §2

Inv [3] = test: Inv mRNA expression in NHK (RT-PCR); format: cell-based, human; conditions: NHK treated over a period of three days
Experimental: as §2, with “HaCaT cells were cultured in Dulbecco's modified Eagle's Medium (DMEM) with 10% fetal calf serum (FCS) and antibiotics (100 u/ml penicillin, 1 mg/ml streptomycin sulphate) in a humidified atmosphere of 5% CO2 at 37° C. Medium was changed every other day.” left out
as §3

human keratinocytes = test: Keratinocyte differentiation marker gene expression (summary statements); format: cell-based
Experimental: In the present study we have in detail analyzed the expression of the PPARs during ex vivo differentiation of human keratinocytes, in isolated basal and suprabasal cells, and in sections of human skin. […] All three PPAR subtype selective ligands either alone or in combination only modestly effected keratinocyte proliferation.
as §2, with “HaCaT cells were cultured in Dulbecco's modified Eagle's Medium (DMEM) with 10% fetal calf serum (FCS) and antibiotics (100 u/ml penicillin, 1 mg/ml streptomycin sulphate) in a humidified atmosphere of 5% CO2 at 37° C. Medium was changed every other day.” left out

NHK cells = test: Viability/proliferation by modified MTT assay; format: cell-based, human
Experimental: as §2, with “HaCaT cells were obtained from L. Aarenstrup (Danish Cancer Society, Denmark). HaCaT cells were cultured in Dulbecco's modified Eagle's Medium (DMEM) with 10% fetal calf serum (FCS) and antibiotics (100 u/ml penicillin, 1 mg/ml streptomycin sulphate) in a humidified atmosphere of 5% CO2 at 37° C. Medium was changed every other day.” left out
Viability/proliferation was measured by a modification of the MTT assay introduced by Mosmann T (J Immunol Methods 65:55–63, 1983). […] The amount of formazan was quantified in an ELISA-reader at 540 nm. […]
(§4) Differentiation of keratinocytes is correlated with an increase in cell size. […] In parallel the expression of Tg-1 was monitored using an ELISA-based assay (FIG. 3b).

Tg-1 = Tg-1 expression by indirect immunofluorescence microscopy; format: cell-based, human
Source text: as §1

[4] = system: transglutaminase type 1 (Tg-1); test: Tg-1 expression by ELISA; format: cell-based, human; conditions: normalized to cell number
Experimental: as §2, with “HaCaT cells were obtained from L. Aarenstrup (Danish Cancer Society, Denmark). HaCaT cells were cultured in Dulbecco's modified Eagle's Medium (DMEM) with 10% fetal calf serum (FCS) and antibiotics (100 u/ml penicillin, 1 mg/ml streptomycin sulphate) in a humidified atmosphere of 5% CO2 at 37° C. Medium was changed every other day.” left out
Cells were subjected to two freeze-thaw cycles and transglutaminase type 1 (Tg-1) was determined by ELISA. […] The amount of transglutaminase was measured by quantifying the OPD reaction with an ELISA-reader at 490 nm and subtracting background at 650 nm. […]
as §4

Tg-1 expression [4] | Compound | Inv expression (Inv [1]) | expression of CD36/FAT mRNA (CD36/FAT) | Inv protein expression (Inv [2]) | Inv mRNA expression (Inv [3]) | keratinocyte differentiation marker gene expression (human keratinocytes) | inhibition of NHK cell proliferation (NHK cells) | Tg-1 expression (Tg-1)
 | CCCc1c(OCCCOc2ccc(OCC(=O)O)cc2)ccc(C(C)=O)c1O [L165041] | in a dose-dependent manner induced Inv expression | induced a significant dose-dependent expression of CD36 | dose-dependent induction of Inv protein | dose-dependent induction of Inv mRNA expression | induced in a dose-dependent manner expression of involucrin |  | 
significantly induced Tg-1 expression | [Ca+2].[Cl-].[Cl-] [CaCl2] | comparable levels of expression | did not induce expression of CD36/FAT |  |  |  | only marginal | comparable levels of expression
 | Cc1cccc(Nc2cc(Cl)nc(SCC(=O)O)n2)c1C [Wy14643] |  | induced expression of CD36/FAT |  | modest induction of Inv mRNA expression |  |  | 
